Data on 56 molecules can be found in ChEMBL document CHEMBL2034869, “Mapping pilicide anti-virulence effect in Escherichia coli, a comprehensive structure-activity study” (Bioorg Med Chem, 2012).

In the assay the test system is Escherichia coli. Kind of assay: Inhibition of type-1 pili-dependent biofilm formation in Escherichia coli […]. The assay is classed as functional, organism-based.
The mark [1] stands for this setting: Escherichia coli, UT189, read-out: EC50.

One may read the EC50 as the concentration needed to bring the measured effect to its halfway point.

The structures appear in SMILES notation.

Consider `O=C(O)[C@@H]1CSc2c(C3CC3)c(Cc3cccc4ccccc34)cc(=O)n21`, for which the EC50 under setting [1] came to 250 µM.

As for `COc1ccc2c(Cc3cc(=O)n4c(c3C3CC3)SC[C@H]4C(=O)O)cc(=O)oc2c1`, the EC50 entry is recorded as “Not Active”.

Consider `Cc1cccc(CCc2cc(=O)n3c(c2-c2ccccc2)SC[C@H]3C(=O)O)c1`, for which the EC50 under setting [1] amounted to 40 µM.

Regarding `Cc1cccc(OCc2cc(=O)n3c(c2-c2ccccc2)SC[C@H]3C(=O)O)c1C`, under setting [1], the EC50 was found to be 36 µM.

As to `COc1ccc2c(Cc3cc(=O)n4c(c3-c3ccccc3)SC[C@H]4C(=O)O)cc(=O)oc2c1`, the EC50 entry is reported as “Not Active”.

In the case of `O=C([O-])[C@@H]1CSc2c(C3CC3)c(Cc3csc4ccccc34)cc(=O)n21.[Li+]`, the EC50 result is “Not Active”.

As for `O=C([O-])[C@@H]1CSc2c(C3CC3)c(Cn3nnc4ccccc43)cc(=O)n21.[Li+]`, the EC50 entry is on record as “Not Active”.

In the case of `Cc1cccc(CCc2cc(=O)n3c(c2C(C)C)SC[C@H]3C(=O)O)c1`, the EC50 under setting [1] is 100 µM.

As for `CC(C)c1c(Cn2nnc3ccccc32)cc(=O)n2c1SC[C@H]2C(=O)[O-].[Li+]`, the EC50 entry is “Not Active”.

Regarding `CC(C)c1c(Cc2cccc3ccccc23)cc(=O)n2c1SC[C@H]2C(=O)O`, the EC50 under setting [1] was 100 µM.

`COc1ccc2c(Cc3cc(=O)n4c(c3-c3cccs3)SC[C@H]4C(=O)O)cc(=O)oc2c1`: the EC50 entry is “Not Active”.

With `O=C(O)[C@@H]1CSc2c(-c3cccs3)c(Cc3cccc4ccccc34)cc(=O)n21`, the EC50 under setting [1] was 39 µM.

In the case of `O=C(O)[C@@H]1CSc2c(-c3cccs3)c(COc3cccc4ccccc34)cc(=O)n21`, the EC50 under setting [1] is 14 µM.

As to `Cc1cccc(OCc2cc(=O)n3c(c2-c2ccc4c(c2)OCO4)SC[C@H]3C(=O)O)c1C`, the EC50 under setting [1] is 27 µM.

Consider `O=C(O)[C@@H]1CSc2c(-c3ccc4c(c3)OCO4)c(Cc3csc4ccccc34)cc(=O)n21`, for which, under setting [1], the EC50 was 67 µM.

As for `O=C(O)[C@@H]1CSc2c(-c3ccc4c(c3)OCO4)c(COc3cccc4ccccc34)cc(=O)n21`, the EC50 under setting [1] stood at 21 µM.

As to `Cc1cccc(CCc2cc(=O)n3c(c2-c2c[nH]c4ccccc24)SC[C@H]3C(=O)O)c1`, under setting [1], the EC50 was determined as 74 µM.

Consider `O=C(O)[C@@H]1CSc2c(-c3c[nH]c4ccccc34)c(COc3cccc4ccccc34)cc(=O)n21`, for which, under setting [1], the EC50 came to 12 µM.

`O=C(O)[C@@H]1CSc2c(-c3c[nH]c4ccccc34)c(Cc3ccc4c(c3)OCO4)cc(=O)n21`: the EC50 under setting [1] was found to be 39 µM.

Take `Cc1cccc(OCc2cc(=O)n3c(c2-c2cccnc2)SC[C@H]3C(=O)[O-])c1C.[Li+]`: the EC50 entry is reported as “Not Active”.

Regarding `O=C([O-])[C@@H]1CSc2c(-c3cccnc3)c(Cn3nnc4ccccc43)cc(=O)n21.[Li+]`, the EC50 entry is on record as “Not Active”.

As to `O=C([O-])[C@@H]1CSc2c(-c3cccnc3)c(Cc3ccc4c(c3)OCO4)cc(=O)n21.[Li+]`, the EC50 entry was “Not Active”.

On to `COc1c(Cc2csc3ccccc23)cc(=O)n2c1SC[C@H]2C(=O)[O-].[Li+]`, for which the EC50 entry is recorded as “Not Active”.

In the case of `COc1c(Cc2cccc3ccccc23)cc(=O)n2c1SC[C@H]2C(=O)[O-].[Li+]`, the 50% effective concentration (EC50) result is listed as “Not Active”.

For the molecule `COc1c(Cc2ccc3c(c2)OCO3)cc(=O)n2c1SC[C@H]2C(=O)O`, the EC50 entry is listed as “Not Active”.

In the case of `O=C(O)[C@@H]1CSc2c(-c3cccc(C(F)(F)F)c3)c(Cc3cccc(COc4cccc5ccccc45)c3)cc(=O)n21`, the EC50 under setting [1] was determined as 1.9 µM.

With `O=C(O)[C@@H]1CSc2c(C3CC3)c(Cc3cccc(COc4cccc5ccccc45)c3)cc(=O)n21`, the EC50 under setting [1] was determined as 1.4 µM.

As for `O=C(O)[C@@H]1CSc2c(-c3ccccc3)c(Cc3cccc4ccccc34)cc(=O)n21`, the EC50 under setting [1] turned out to be 40 µM.

For the molecule `O=C(O)[C@@H]1CSc2c(-c3c[nH]c4ccccc34)c(Cc3cccc4ccccc34)cc(=O)n21`, under setting [1], the half-maximal effective concentration (EC50) amounted to 31 µM.

With `Cn1cc(-c2c(COc3cccc4ccccc34)cc(=O)n3c2SC[C@H]3C(=O)O)c2ccccc21`, the concentration for a half-maximal effect (EC50) under setting [1] was found to be 10 µM.

With `Cn1cc(-c2c(COc3cccc4ccccc34)cc(=O)n3c2SC[C@H]3C(=O)NS(C)(=O)=O)c2ccccc21`, the EC50 under setting [1] turned out to be 9 µM.

With `Cn1cc(-c2c(COc3cccc4ccccc34)cc(=O)n3c2OC[C@H]3C(=O)O)c2ccccc21`, the EC50 under setting [1] stood at 18 µM.

Turning to `O=C(O)[C@@H]1COc2c(-c3ccc4c(c3)OCO4)c(COc3cccc4ccccc34)cc(=O)n21`, the EC50 under setting [1] worked out at 19 µM.

Turning to `O=C(O)[C@@H]1COc2c(-c3cccs3)c(Cc3cccc4ccccc34)cc(=O)n21`, the EC50 under setting [1] came out at 117 µM.

For `Cn1cc(-c2c(Cc3cccc(COc4cccc5ccccc45)c3)cc(=O)n3c2SC[C@H]3C(=O)O)c2ccccc21`, the EC50 under setting [1] is 1.1 µM.

For the molecule `O=C(O)[C@@H]1CSc2c(-c3cccc(C(F)(F)F)c3)c(Cc3c4ccccc4cc4ccccc34)cc(=O)n21`, the EC50 under setting [1] was found to be 3 µM.

`Cn1cc(-c2c(COc3cccc(Oc4ccccc4)c3)cc(=O)n3c2SC[C@H]3C(=O)O)c2ccccc21`: the EC50 under setting [1] amounted to 2.1 µM.

For `O=C(O)[C@@H]1CSc2c(-c3cccc(C(F)(F)F)c3)c(COc3cccc(Oc4ccccc4)c3)cc(=O)n21`, under setting [1], the EC50 was found to be 4.3 µM.

Consider `O=C(O)[C@@H]1CSc2c(C3CC3)c(COc3cccc(Oc4ccccc4)c3)cc(=O)n21`, for which the EC50 under setting [1] worked out at 39 µM.

Consider `O=C([O-])[C@@H]1CSc2c(C3CC3)c(Cn3ccc4ccccc43)cc(=O)n21.[Li+]`, for which the EC50 result is listed as “Not Active”.

Consider `Cn1cc(-c2c(COc3cccc4ccccc34)cc(=O)n3c2S[C@H](c2ccccc2)[C@H]3C(=O)O)c2ccccc21`, for which the EC50 under setting [1] is 1 µM.

For `O=C(O)[C@@H]1[C@@H](c2ccccc2)Sc2c(-c3ccc4c(c3)OCO4)c(COc3cccc4ccccc34)cc(=O)n21`, the EC50 under setting [1] stood at 1.2 µM.

Take `O=C(O)[C@@H]1[C@@H](c2ccccc2)Sc2c(-c3cccs3)c(Cc3cccc4ccccc34)cc(=O)n21`: the EC50 under setting [1] worked out at 0.4 µM.

Regarding `CO[C@H]1Sc2c(-c3cn(C)c4ccccc34)c(COc3cccc4ccccc34)cc(=O)n2[C@@H]1C(=O)O`, the EC50 under setting [1] is 2.5 µM.

Turning to `CO[C@H]1Sc2c(-c3ccc4c(c3)OCO4)c(COc3cccc4ccccc34)cc(=O)n2[C@@H]1C(=O)O`, under setting [1], the EC50 was determined as 30 µM.

Consider `CO[C@H]1Sc2c(-c3cccs3)c(Cc3cccc4ccccc34)cc(=O)n2[C@@H]1C(=O)O`, for which the EC50 under setting [1] came out at 92 µM.

In the case of `Cn1cc(-c2c(COc3cccc4ccccc34)c(CN3CCOCC3)c(=O)n3c2SC[C@H]3C(=O)O)c2ccccc21`, under setting [1], the EC50 came out at 18 µM.

Turning to `O=C(O)[C@@H]1CSc2c(-c3ccc4c(c3)OCO4)c(COc3cccc4ccccc34)c(CN3CCOCC3)c(=O)n21`, the EC50 under setting [1] was found to be 32 µM.

Turning to `O=C(O)[C@@H]1CSc2c(-c3cccs3)c(Cc3cccc4ccccc34)c(CN3CCOCC3)c(=O)n21`, the EC50 under setting [1] amounted to 88 µM.

As for `Cn1cc(-c2c(COc3cccc4ccccc34)c(CO)c(=O)n3c2SC[C@H]3C(=O)O)c2ccccc21`, the EC50 under setting [1] amounted to 16 µM.

`O=C(O)[C@@H]1CSc2c(-c3ccc4c(c3)OCO4)c(COc3cccc4ccccc34)c(CO)c(=O)n21`: the EC50 under setting [1] came out at 30 µM.

As for `O=C(O)[C@@H]1CSc2c(-c3cccs3)c(Cc3cccc4ccccc34)c(CO)c(=O)n21`, the EC50 under setting [1] stood at 250 µM.

With `Cc1cccc(-c2sc3c(-c4cn(C)c5ccccc45)c(COc4cccc5ccccc45)c(CN4CCOCC4)c(=O)n3c2C(=O)O)c1`, the EC50 under setting [1] turned out to be 5 µM.

As for `Cc1cccc(-c2sc3c(-c4ccc5c(c4)OCO5)c(COc4cccc5ccccc45)c(CN4CCOCC4)c(=O)n3c2C(=O)O)c1`, the EC50 under setting [1] came to 5 µM.

Consider `Cc1cccc(-c2sc3c(-c4cn(C)c5ccccc45)c(COc4cccc5ccccc45)cc(=O)n3c2C(=O)O)c1`, for which the EC50 under setting [1] came out at 86 µM.

Consider `Cc1cccc(-c2sc3c(-c4ccc5c(c4)OCO5)c(COc4cccc5ccccc45)cc(=O)n3c2C(=O)O)c1`, for which the EC50 under setting [1] is 20 µM.
